Assay results taken from patent US20260373248A1, “DEGRADABLE PEPTOIDS” (Medici Therapeutics, Inc., priority 2023, published 2026).
Starred links: 1 amine or outer side, 2 acyl side, 3 side chain; linkers in the order of their positions; H or OH if unused. Non-standard residues stand in square brackets, D forms with d. Residues, ends and D or L forms follow the SMILES beside them. *: point of attachment. Gly(N-(3-decanoyloxypropyl)) = CCCCCCCCCC(=O)OCCCNCC(=O)O; N(3-lauroyloxypropyl)Gly = CCCCCCCCCCCC(=O)OCCCNCC(=O)O; N(2-decanoyloxyethyl)Gly = CCCCCCCCCC(=O)OCCNCC(=O)O; Gly(N-(CH2)3O-octanoyl) = CCCCCCCC(=O)OCCCNCC(=O)O; N(3-imidazol-1-ylpropyl)Gly = O=C(O)CNCCCn1ccnc1; Gly(N-3-morpholinopropyl) = O=C(O)CNCCCN1CCOCC1; N(2-ethylhexyl)Gly = CCCCC(CC)CNCC(=O)O; X2 = CCCCCCC(CCCC)CN(CC(=O)[*:2])[*:1]; Gly(N-dodecyl) = CCCCCCCCCCCCNCC(=O)O; N(CH(CH2OH)2)Gly = O=C(O)CNC(CO)CO; For = O=C*

Experiments:
[1] = tested on: luciferase; assay: Luciferase expression after local (intramuscular or subcutaneous) administration of mRNA; format: in vivo; conditions: mRNA 0.01 mpk, 6 hours; for IM Flux: intramuscular; for SC Flux: subcutaneous
In short: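 Bioluminescence read 6 hours after fLuc mRNA dosing (peptoid Nutshells; 0.01 mpk S.C. or I.M., 0.1 mpk intratumoral) in female Balb/c mice aged 6-8 weeks. D-luciferin injected IP, whole-body imaging after 10 minutes, then organ imaging; total photon flux per region of interest.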

[2] = tested on: hEPO; assay: Quantification of hEPO in serum after IV injection of mRNA (Human EPO ELISA); format: in vivo; conditions: Balb/c mice, 2.5 μg mRNA IV, serum after 6 hours
In short: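 Balb/c mice received 2.5 μg mRNA encoding human EPO by IV injection; serum was collected after 6 hours. hEPO was measured by sandwich ELISA (biotin-conjugate, streptavidin-HRP, TMB, A450) against kit standards (mIU/mL) and an external standard (ng/mL), with values interpolated and corrected for dilution.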

[3] = tested on: firefly luciferase; assay: In vivo firefly luciferase expression after intravenous injection of fLuc mRNA delivery vehicles (IVIS imaging); design: species or system female Balb/c mice; conditions: for Total Flux (luciferase expression): fLuc mRNA, intravenous, Balb/c mice; for Total Flux: mice, 2.5 ug fLuc mRNA intravenously, 6 hours post-injection
In short: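 Read-out is total photon flux per region of interest, from whole-body IVIS images taken 10 minutes after IP D-luciferin (30 mg/mL, 10 μL/g) and from excised organs. Female Balb/c mice aged 6-8 weeks received 2.5 ug fLuc mRNA Nutshells intravenously 6 hours before imaging.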

[4] = tested on: mRNA; assay: mRNA encapsulation (modified Quant-iT RiboGreen assay); format: physicochemical; conditions: for mean percent encapsulation of RNA: RiboGreen, without vs with Triton X-100; for % Encapsulation: mRNA
In short: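 Encapsulated fraction was calculated by comparing RiboGreen signal (excitation 485 nm, emission 530 nm) of intact particles with that of particles lysed by a 10-min Triton X-100 treatment. Total mRNA concentration was taken from the lysed samples.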

[5] = Delivery vehicle size and polydispersity by dynamic light scattering; format: physicochemical
In short: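 Dynamic light scattering in PBS gave size and polydispersity of peptoid LNPs. These were dialyzed overnight at 4 °C into tris-sucrose buffer pH 7.4 after microfluidic 1:3 volume mixing of mRNA in pH 5.0 citrate with ethanol lipids (peptoid:DSPC:cholesterol:DMG-PEG2000 20:1.79:7.16:1.84 w/w).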

[6] = Peptoid quantity remaining in liver by HPLC-TOF mass spectrometry; format: in vivo; conditions: liver homogenate
In short: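 Whole liver weighed; 20 mg tissue bead-homogenized in IPA/MeOH (8/2) with internal standard, centrifuged, supernatant run on BEH C8 HPLC-TOF MS. Peptoid concentration derived from linear calibration curve (0.2-50 μg/g) prepared in spiked untreated liver.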

[7] = DLS in PBS, peptoid:DSPC:Cholesterol:DMG-PEG2000 weight ratio 20:1.79:7.16:1.84, mRNA

Compound | mean percent encapsulation of RNA [4] | PDI [5, 7] | Particle Size [5, 7] | % of injected dose remaining in liver [6] | IM Flux [1] | SC Flux [1] | hEPO [2] | Total Flux [3] | other results
CCCCCCCCCCCC(=O)OCCCN(CC(=O)N(CC(=O)N(CCCn1ccnc1)CC(=O)N(CC(=O)N(CCCOC(=O)CCCCCCCCCCC)CC(=O)N(CC(N)=O)CC(CC)CCCC)CC(CC)CCCC)CC(CC)CCCC)C(=O)CN(C=O)CC(CC)CCCC (stereo not shown) [Compound 82] (For-[N(2-ethylhexyl)Gly][N(3-lauroyloxypropyl)Gly][N(2-ethylhexyl)Gly][N(3-imidazol-1-ylpropyl)Gly][N(2-ethylhexyl)Gly][N(3-lauroyloxypropyl)Gly][N(2-ethylhexyl)Gly]-NH2) | 70.7% | 0.163 | 81.5 nm | 15.77% | 1.24E+08 p/s | 1.41E+08 p/s | 600 ng/mL | 2.62E+09 p/s | Total Flux (luciferase expression) ([3]; formulation recipe D22): 2.62E+09 p/s; Total Flux (luciferase expression) ([3]; formulation recipe F2): 4.10E+08 p/s; Total Flux (luciferase expression) ([3]; formulation recipe X29): 2.83E+09 p/s; Total Flux (luciferase expression) ([3]; formulation recipe X145): 5.70E+09 p/s; % Encapsulation ([4]; formulation recipe D22): 70.7%; % Encapsulation ([4]; formulation recipe F2): 75.3%; % Encapsulation ([4]; formulation recipe X29): 62.0%; % Encapsulation ([4]; formulation recipe X145): 70.9%; Particle Size ([5]; formulation recipe D22): 81.5 nm; Particle Size ([5]; formulation recipe F2): 65.9 nm; Particle Size ([5]; formulation recipe X29): 72.1 nm; Particle Size ([5]; formulation recipe X145): 80.7 nm
CCCCCCCCCCCC(=O)OCCCN(CC(=O)N(CC(=O)N(CC(=O)N(CCCn1ccnc1)CC(=O)N(CC(=O)N(CC(=O)N(CCCOC(=O)CCCCCCCCCCC)CC(=O)N(CC(N)=O)CC(CC)CCCC)Cc1ccco1)CC(CC)CCCC)CC(CC)CCCC)Cc1ccco1)C(=O)CN(C=O)CC(CC)CCCC (stereo not shown) [Compound 100] | 68.4% | 0.103 | 109.3 nm | 19.76% | 4.86E+07 p/s | 6.16E+07 p/s | 59.4 ng/mL | 2.32E+08 p/s | 
CCCCCCCC(=O)OCCCN(CC(=O)N(CC(=O)N(CC(=O)N(CCCOC(=O)CCCCCCC)CC(=O)N(CC(N)=O)CC(CCCC)CCCCCC)CC(CC)CCCC)CC(CCCC)CCCCCC)C(=O)CN(CC(CC)CCCC)C(=O)CNC(CO)CO (stereo not shown) [Compound 104] (H-[N(CH(CH2OH)2)Gly][N(2-ethylhexyl)Gly][Gly(N-(CH2)3O-octanoyl)][X2][N(2-ethylhexyl)Gly][Gly(N-(CH2)3O-octanoyl)][X2]-NH2) | 93.6% | 0.092 | 78.8 nm | 7.45% | 1.34E+08 p/s | 1.93E+08 p/s | 693 ng/mL | 4.50E+09 p/s | 
CCCCCCCCCC(=O)OCCCN(CC(=O)N(CC(=O)N(CC(=O)N(CCCOC(=O)CCCCCCCCC)CC(=O)N(CC(N)=O)CC(CC)CCCC)CC(CC)CCCC)CC(CC)CCCC)C(=O)CN(CC(CC)CCCC)C(=O)CN(C=O)CCCN1CCOCC1 (stereo not shown) [Compound 106] (For-[Gly(N-3-morpholinopropyl)][N(2-ethylhexyl)Gly][Gly(N-(3-decanoyloxypropyl))][N(2-ethylhexyl)Gly][N(2-ethylhexyl)Gly][Gly(N-(3-decanoyloxypropyl))][N(2-ethylhexyl)Gly]-NH2) | 80.0% | 0.155 | 91.5 nm | 5.86% | 1.07E+08 p/s | 1.70E+08 p/s | 471 ng/mL | 6.71E+09 p/s | 

The next lines start with results.

mean percent encapsulation of RNA [4] | PDI [5, 7] | Particle Size [5, 7] | % of injected dose remaining in liver [6] | Compound | IM Flux [1] | SC Flux [1] | hEPO [2] | Total Flux [3] | other results
7.4% | 0.118 | 73.1 nm | 16.59% | CCCCCCCCCCCCN(C=O)CC(=O)N(CCCOC(=O)CCCCCCCCC)CC(=O)N(CC(=O)N(CCCN1CCOCC1)CC(=O)N(CC(=O)N(CCCOC(=O)CCCCCCCCC)CC(=O)N(CCCCCCCCCCCC)CC(N)=O)CC(CC)CCCC)CC(CC)CCCC (stereo not shown) [Compound 88] (For-[Gly(N-dodecyl)][Gly(N-(3-decanoyloxypropyl))][N(2-ethylhexyl)Gly][Gly(N-3-morpholinopropyl)][N(2-ethylhexyl)Gly][Gly(N-(3-decanoyloxypropyl))][Gly(N-dodecyl)]-NH2) | 4.29E+07 p/s | 6.88E+07 p/s | 109 ng/mL | 3.77E+08 p/s | Total Flux (luciferase expression) ([3]; formulation recipe F2): 1.59E+09 p/s; % Encapsulation ([4]; formulation recipe F2): 71.8%; Particle Size ([5]; formulation recipe F2): 72.4 nm
47.1% | 0.123 | 97.8 nm | 0.86% | CCCCCCCCCC(=O)OCCCN(CC(N)=O)C(=O)CN(CCCOC(=O)CCCCCCCCC)C(=O)CN(CC(CC)CCCC)C(=O)CN(CCCOC(=O)CCCCCCCCC)C(=O)CN(CCCOC(=O)CCCCCCCCC)C(=O)CN(CC(CC)CCCC)C(=O)CNC(CO)CO (stereo not shown) [Compound 102] (H-[N(CH(CH2OH)2)Gly][N(2-ethylhexyl)Gly][Gly(N-(3-decanoyloxypropyl))][Gly(N-(3-decanoyloxypropyl))][N(2-ethylhexyl)Gly][Gly(N-(3-decanoyloxypropyl))][Gly(N-(3-decanoyloxypropyl))]-NH2) | 2.12E+08 p/s | 1.76E+08 p/s | 207 ng/mL | 1.90E+09 p/s | 
76.8% | 0.111 | 81.5 nm | bdl | CCCCCCCCCC(=O)OCCCN(CC(N)=O)C(=O)CN(CC(CC)CCCC)C(=O)CN(CCCOC(=O)CCCCCCCCC)C(=O)CN(CCCOC(=O)CCCCCCCCC)C(=O)CN(CCCOC(=O)CCCCCCCCC)C(=O)CN(CC(CC)CCCC)C(=O)CNC(CO)CO (stereo not shown) [Compound 103] (H-[N(CH(CH2OH)2)Gly][N(2-ethylhexyl)Gly][Gly(N-(3-decanoyloxypropyl))][Gly(N-(3-decanoyloxypropyl))][Gly(N-(3-decanoyloxypropyl))][N(2-ethylhexyl)Gly][Gly(N-(3-decanoyloxypropyl))]-NH2) | 1.93E+08 p/s | 7.28E+08 p/s | 961 ng/mL | 8.56E+09 p/s | 
73.2% | 0.150 | 75.9 nm | 7.51% | CCCCCCCCCC(=O)OCCN(CC(N)=O)C(=O)CN(CCOC(=O)CCCCCCCCC)C(=O)CN(CC(CC)CCCC)C(=O)CN(CCOC(=O)CCCCCCCCC)C(=O)CN(CCOC(=O)CCCCCCCCC)C(=O)CN(CC(CC)CCCC)C(=O)CNC(CO)CO (stereo not shown) [Compound 105] (H-[N(CH(CH2OH)2)Gly][N(2-ethylhexyl)Gly][N(2-decanoyloxyethyl)Gly][N(2-decanoyloxyethyl)Gly][N(2-ethylhexyl)Gly][N(2-decanoyloxyethyl)Gly][N(2-decanoyloxyethyl)Gly]-NH2) | 2.85E+08 p/s | 9.57E+08 p/s | 580 ng/mL | 1.05E+10 p/s | Total Flux (luciferase expression) ([3]; formulation recipe D22): 1.05E+10 p/s; Total Flux (luciferase expression) ([3]; formulation recipe R1): 4.15E+08 p/s; Total Flux (luciferase expression) ([3]; formulation recipe R4): 2.47E+09 p/s; Total Flux (luciferase expression) ([3]; formulation recipe R5): 1.28E+09 p/s; Total Flux (luciferase expression) ([3]; formulation recipe R9): 1.56E+09 p/s; Total Flux (luciferase expression) ([3]; formulation recipe R10): 2.70E+09 p/s; % Encapsulation ([4]; formulation recipe D22): 73.2%; % Encapsulation ([4]; formulation recipe R1): 92.7%; % Encapsulation ([4]; formulation recipe R4): 73.1%; % Encapsulation ([4]; formulation recipe R5): 94.6%; % Encapsulation ([4]; formulation recipe R9): 94.0%; % Encapsulation ([4]; formulation recipe R10): 93.2%; Particle Size ([5]; formulation recipe D22): 75.9 nm; Particle Size ([5]; formulation recipe R1): 55.6 nm; Particle Size ([5]; formulation recipe R4): 59.6 nm; Particle Size ([5]; formulation recipe R5): 63.5 nm; Particle Size ([5]; formulation recipe R9): 64.9 nm; Particle Size ([5]; formulation recipe R10): 68.6 nm
